From patent publication US8957074B2 (Novartis AG, priority 2010, dated 2015) come the findings set out here.

Like-named read-outs stand apart in the source and are kept apart here. A value given as a limit tells only on which side of the number the result lay.

The subject of assay [1] is phosphorylation of pRb at the Ser780 site in JeKo-1 mantle cell lymphoma cells. Put plainly: CDK4 cellular assay: ELISA of pRb phosphorylation at Ser780 in JeKo-1 cells. The assay is classed as cell-based. (In an ELISA, binding on a coated surface is turned into a signal by an enzyme label.)
Assay [2] has as its target CDK4/cyclin D1 (Homo sapiens (Human), UniProt P11802). Put plainly: CDK4/cyclin D1 enzymatic activity assay (TR-FRET, phosphorylation of pRb at Ser780). In kind it is biochemical. In outline: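 Phosphorylation at pRb Ser780, detected by TR-FRET, gave IC50s and kinetics. Enzyme: baculovirus/Sf21-expressed human CDK4/cyclin D1. ATP at 3 μM initiated the reaction; EDTA (pH 8.0) stopped it after 60 min at 22° C.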

For assay [3], the target named is CDK1/cyclin B (Homo sapiens (Human), UniProt P06493). Put plainly: CDK1/cyclin B enzymatic activity assay (IMAP-FP). The assay is classed as biochemical. Conditions: 100 nM Tamra Histone-H1 peptide, 20 μM ATP, 120 min at room temperature, read-out: Biochemical CDK1 enzyme IC50. The text has this: CDK1/Cyclin B Enzymatic Activity Assay
A 384-well microtiter IMAP-FP™ (Molecular Devices Trade Mark Technology) endpoint assay was used for CDK1/cyclin B kinase activity measurements. The same assay was used for IC50 determination of small molecule inhibitors.

Where [4] appears, read: Homo sapiens, JeKo-1 cells, p-pRb % inhibition adjusted with total pRb levels, read-out: Normalized cellular ppRb inhibition IC50.
[5] abbreviates: Homo sapiens, JeKo-1 cells, p-pRb Ser780 ELISA, non-normalized, read-out: Cellular ppRb inhibition IC50.
Where [6] appears, read: 0.3 nM CDK4/cyclin D1, 150 nM biotin-pRb (773-924), 3 μM ATP, 60 min at 22° C., read-out: Biochemical CDK4 enzyme IC50.
Where [7] appears, read: Homo sapiens, JeKo-1, JeKo-1 cells, p-pRb % inhibition adjusted with total pRb levels, read-out: Normalized cellular ppRb inhibition IC50.
The mark [8] stands for this setting: Homo sapiens, JeKo-1, JeKo-1 cells, p-pRb Ser780 ELISA, non-normalized, read-out: Cellular ppRb inhibition IC50.
[9] abbreviates: Homo sapiens, JeKo-1, read-out: Cellular ppRb inhibition IC50.
Where [10] appears, read: Homo sapiens, JeKo-1, read-out: Normalized cellular ppRb inhibition IC50.

Chain of CDK4/cyclin D1 (P11802 whole entry): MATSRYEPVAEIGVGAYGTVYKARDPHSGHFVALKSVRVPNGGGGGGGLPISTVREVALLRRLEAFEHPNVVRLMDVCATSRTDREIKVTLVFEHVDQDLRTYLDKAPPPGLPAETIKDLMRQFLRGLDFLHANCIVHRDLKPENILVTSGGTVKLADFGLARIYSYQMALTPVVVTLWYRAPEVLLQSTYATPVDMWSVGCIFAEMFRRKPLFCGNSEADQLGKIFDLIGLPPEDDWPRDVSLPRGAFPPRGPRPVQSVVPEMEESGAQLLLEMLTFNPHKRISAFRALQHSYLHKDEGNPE
Chain of CDK4/cyclin D1 (P24385 whole entry partner): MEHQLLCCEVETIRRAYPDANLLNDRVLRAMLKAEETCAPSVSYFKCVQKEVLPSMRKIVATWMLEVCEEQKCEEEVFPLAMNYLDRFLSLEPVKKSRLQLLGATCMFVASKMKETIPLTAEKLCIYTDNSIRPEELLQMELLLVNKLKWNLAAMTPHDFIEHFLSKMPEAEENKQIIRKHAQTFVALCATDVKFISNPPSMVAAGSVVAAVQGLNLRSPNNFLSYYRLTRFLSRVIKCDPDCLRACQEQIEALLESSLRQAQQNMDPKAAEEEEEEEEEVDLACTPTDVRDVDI
Chain of CDK1/cyclin B (P06493 whole entry, species assumed): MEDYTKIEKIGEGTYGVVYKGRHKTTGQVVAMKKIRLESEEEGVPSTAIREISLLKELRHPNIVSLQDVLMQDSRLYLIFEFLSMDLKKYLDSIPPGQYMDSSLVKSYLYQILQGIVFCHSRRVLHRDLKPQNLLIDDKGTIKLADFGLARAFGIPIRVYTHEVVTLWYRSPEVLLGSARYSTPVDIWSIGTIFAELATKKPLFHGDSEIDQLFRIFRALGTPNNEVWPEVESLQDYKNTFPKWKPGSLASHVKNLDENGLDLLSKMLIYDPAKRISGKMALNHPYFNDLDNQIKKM
Chain of CDK1/cyclin B (P14635 whole entry partner, species assumed): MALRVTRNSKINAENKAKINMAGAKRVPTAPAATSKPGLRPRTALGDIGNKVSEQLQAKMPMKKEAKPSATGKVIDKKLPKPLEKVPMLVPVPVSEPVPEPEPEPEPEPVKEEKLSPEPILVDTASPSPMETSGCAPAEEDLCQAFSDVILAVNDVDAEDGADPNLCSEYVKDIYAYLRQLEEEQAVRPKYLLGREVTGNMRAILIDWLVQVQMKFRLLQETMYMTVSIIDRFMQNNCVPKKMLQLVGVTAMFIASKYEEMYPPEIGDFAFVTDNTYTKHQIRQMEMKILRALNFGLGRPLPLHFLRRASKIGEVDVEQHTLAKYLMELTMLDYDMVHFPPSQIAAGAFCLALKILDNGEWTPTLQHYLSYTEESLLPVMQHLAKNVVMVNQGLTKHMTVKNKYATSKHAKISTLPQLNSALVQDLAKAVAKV

A word on the IC50: it is the concentration that inhibits the measured activity by half. On to `CN(C)C(=O)c1cc2cnc(Nc3ccc(C(=O)N4CC5CCC(C4)C5O)cn3)nc2n1C1CCCC1` [Example 33, 7-cyclopentyl-2-(5-((1R,5S,8r)-8-hydroxy-3-azabicyclo[3.2.1]octane-3-carbonyl)pyridin-2-ylamino)-N,N-dimethyl-7H-pyrrolo[2,3-d]pyrimidine-6-carboxamide], for which the 50% inhibitory concentration (IC50) is 430 to 1300 nM in assay [1] (setting [4]), 377 to 919 nM in assay [1] (setting [5]), 94 to 144 nM in assay [2] (setting [6]) and over 15000 nM in assay [3] ([…] CDK1/cyclin B).

`CN(C)C(=O)c1cc2cnc(Nc3ccc(C(=O)N4C[C@@H]5C[C@]5(N)C4)cn3)nc2n1C1CCCC1` (stereo in doubt) [Example 15, 2-[5-((S)-1-Amino-3-aza-bicyclo[3.1.0]hexane-3-carbonyl)-pyridin-2-ylamino]-7-cyclopentyl-7H-pyrrolo[2,3-d]pyrimidine-6-carboxylic acid dimethylamide]: the IC50 in assay [1] (setting [7]) is 264 nM; in assay [1] (setting [8]) it was 43 nM; in assay [2] (setting [6]), 18 nM; in assay [3] ([…] CDK1/cyclin B) it was over 15000 nM.

On to `CN(C)C(=O)c1cc2cnc(Nc3ccc(N4CC5(CCCNCC5)OC4=O)cn3)nc2n1C1CCCC1` (stereo not drawn) [Example 103, 7-cyclopentyl-N,N-dimethyl-2-(5-(2-oxo-1-oxa-3,8-diazaspiro[4.6]undecan-3-yl)pyridin-2-ylamino)-7H-pyrrolo[2,3-d]pyrimidine-6-carboxamide], for which the IC50 is 64 to 169 nM in assay [1] (setting [4]), 24 to 72 nM in assay [1] (setting [5]), 17 nM in assay [2] (setting [6]) and over 15000 nM in assay [3] ([…] CDK1/cyclin B).

On to `CN(C)C(=O)c1cc2cnc(Nc3ccc(N4C[C@@H]5CC[C@H](CC4=O)N5)cn3)nc2n1C1CCCC1` [Example 124, 7-Cyclopentyl-2-[5-((1S,6R)-4-oxo-3,9-diaza-bicyclo[4.2.1]non-3-yl)-pyridin-2-ylamino]-7H-pyrrolo[2,3-d]pyrimidine-6-carboxylic acid dimethylamide], for which the half-inhibitory concentration (IC50) is 261 nM in assay [1] (JeKo-1 cells, p-pRb % inhibition adjusted with total pRb levels, read-out: Normalized cellular ppRb inhibition IC50); 158 nM in assay [1] (JeKo-1 cells, p-pRb Ser780 ELISA, non-normalized, read-out: Cellular ppRb inhibition IC50); 23 nM in assay [2] (setting [6]); over 15000 nM in assay [3] ([…] CDK1/cyclin B).

`CN(C)C(=O)c1cc2cnc(Nc3ccc(N4C[C@@H]5CNC[C@@H]5CC4=O)cn3)nc2n1C1CCCC1` (stereo in doubt) [Example 92, 7-cyclopentyl-N,N-dimethyl-2-(5-(cis-6-oxotetrahydro-1H-pyrrolo[3,4-c]pyridin-5(6H,7H,7aH)-yl)pyridin-2-ylamino)-7H-pyrrolo[2,3-d]pyrimidine-6-carboxamide]: the half-inhibitory concentration (IC50) in assay [1] (setting [9]) was 5 to 20 nM; in assay [1] (setting [10]) it was 19 to 38 nM; in assay [2] (setting [6]), 5 to 7 nM; in assay [3] ([…] CDK1/cyclin B), 25100 nM.

`CN(C)C(=O)c1cc2cnc(Nc3ccc(C(=O)N4CC5CC4CN5)cn3)nc2n1C1CCCCC1` (stereo not drawn) [Example 67, 7-Cyclohexyl-2-[5-(2,5-diaza-bicyclo[2.2.1]heptane-2-carbonyl)-pyridin-2-ylamino]-7H-pyrrolo[2,3-d]pyrimidine-6-carboxylic acid dimethylamide]: the IC50 in assay [1] (setting [4]) worked out at 54 nM; in assay [1] (setting [5]) it was 51 nM; in assay [2] (setting [6]), 3 nM; in assay [3] ([…] CDK1/cyclin B), 10400 nM.

For `CN(C)C(=O)c1cc2cnc(Nc3ccc(N4CC5CCC(CC4=O)N5)nn3)nc2n1C1CCCC1` (stereo not drawn) [Example 79, 7-Cyclopentyl-2-[6-(4-oxo-3,9-diaza-bicyclo[4.2.1]non-3-yl)pyridazin-3-ylamino]-7H-pyrrolo[2,3-d]pyrimidine-6-carboxylic acid dimethylamide], the 50% inhibitory concentration (IC50) in assay [1] (setting [7]) is 117 nM; in assay [1] (setting [8]), 30 nM; in assay [2] it was 42 nM; in assay [3] (0.25 nM CDK1/cyclin B) it was over 15000 nM.

In the case of `CN(C)C(=O)c1cc2cnc(Nc3ccc(N4C(=O)CN5CCC4CC5)cn3)nc2n1C1CCCCCC1` [Example 97, 7-cycloheptyl-N,N-dimethyl-2-(5-(3-oxo-1,4-diazabicyclo[3.2.2]nonan-4-yl)pyridin-2-ylamino)-7H-pyrrolo[2,3-d]pyrimidine-6-carboxamide], the IC50 in assay [1] (setting [9]) was 66 nM; in assay [1] (setting [10]) it was 145 nM; in assay [2] (setting [6]) it was 51 nM; in assay [3] (0.25 nM CDK1/cyclin B) it was over 15000 nM.

In the case of `CN(C)C(=O)c1cc2cnc(Nc3ccc(C(=O)N4CC5CCC(C4)N5)cn3)nc2n1C1CCN(C(C)(C)C)CC1` [Example 57, 7-(1-tert-Butyl-piperidin-4-yl)-2-[5-(3,8-diaza-bicyclo[3.2.1]octane-3-carbonyl)-pyridin-2-ylamino]-7H-pyrrolo[2,3-d]pyrimidine-6-carboxylic acid dimethylamide], the IC50 in assay [1] (setting [4]) is over 10000 nM; in assay [1] (setting [5]) it was over 10000 nM; in assay [2] (setting [6]), 1570 nM; in assay [3] ([…] CDK1/cyclin B) it was over 15000 nM.

On to `CN(C)C(=O)c1cc2cnc(Nc3ccc(C(=O)N4CCN5CCC[C@@H]5C4)cn3)nc2n1C1CCCC1` [Example 21, 7-Cyclopentyl-2-[5-((R)-hexahydro-pyrrolo[1,2-a]pyrazine-2-carbonyl)-pyridin-2-ylamino]-7H-pyrrolo[2,3-d]pyrimidine-6-carboxylic acid dimethylamide], for which the half-inhibitory concentration (IC50) is 401 nM in assay [1] (setting [7]), 187 nM in assay [1] (setting [8]), 47 nM in assay [2] (setting [6]) and over 15000 nM in assay [3] ([…] CDK1/cyclin B).

Consider `CN(C)C(=O)c1cc2cnc(Nc3ccc(C(=O)N4CC5CCC(C4)C5(C)O)cn3)nc2n1C1CCCCCC1` (stereo not drawn) [Example 6, 7-cycloheptyl-2-(5-(8-hydroxy-8-methyl-3-azabicyclo[3.2.1]octane-3-carbonyl)pyridin-2-ylamino)-N,N-dimethyl-7H-pyrrolo[2,3-d]pyrimidine-6-carboxamide], for which the IC50 in assay [1] (setting [4]) was 889 nM; in assay [1] (setting [5]), 148 nM; in assay [2] (setting [6]), 187 nM; in assay [3] ([…] CDK1/cyclin B), over 15000 nM.

As to `CNC(=O)c1cc2cnc(Nc3ccc(C(=O)N4CC5CCC(C4)N5)cn3)nc2n1C1CCCC1` [Example 23, 7-Cyclopentyl-2-[5-(3,8-diaza-bicyclo[3.2.1]octane-3-carbonyl)-pyridin-2-ylamino]-7H-pyrrolo[2,3-d]pyrimidine-6-carboxylic acid methylamide], the IC50 in assay [1] (setting [7]) is 6770 nM; in assay [1] (setting [8]) it was 6770 nM; in assay [2] (setting [6]), 1630 nM; in assay [3] ([…] CDK1/cyclin B), over 15000 nM.

In the case of `CN(C)C(=O)c1cc2cnc(Nc3ccc(N4CC5(CC4=O)CC4CCC(C5)N4)cn3)nc2n1C1CCCC1` (stereo not drawn) [Example 118, 7-cyclopentyl-N,N-dimethyl-2-(5-(5′-oxo-8-azaspiro[bicyclo[3.2.1]octane-3,3′-pyrrolidine]-1′-yl)pyridin-2-ylamino)-7H-pyrrolo[2,3-d]pyrimidine-6-carboxamide], the IC50 is 47 to 153 nM in assay [1] (setting [4]), 34 to 147 nM in assay [1] (setting [5]), 5 to 14 nM in assay [2] (setting [6]) and over 15000 nM in assay [3] ([…] CDK1/cyclin B).

For `CN(C)C(=O)c1cc2cnc(Nc3ccc(N4CC5CCC(N5)C4=O)cn3)nc2n1C1CCCCCC1` (stereo not drawn) [Example 80, 7-Cycloheptyl-2-[5-(2-oxo-3,8-diaza-bicyclo[3.2.1]oct-3-yl)-pyridin-2-ylamino]-7H-pyrrolo[2,3-d]pyrimidine-6-carboxylic acid dimethylamide], the half-inhibitory concentration (IC50) in assay [1] (setting [7]) is 74 to 474 nM; in assay [1] (setting [8]) it was 51 to 320 nM; in assay [2], 12 to 14 nM; in assay [3] (0.25 nM CDK1/cyclin B), 14000 nM.

Turning to `CN(C)C(=O)c1cc2cnc(Nc3ccc(C(=O)N4CCN5CCC4CC5)cn3)nc2n1C1CCCC1` [Example 48, 7-Cyclopentyl-2-[5-(1,4-diaza-bicyclo[3.2.2]nonane-4-carbonyl)-pyridin-2-ylamino]-7H-pyrrolo[2,3-d]pyrimidine-6-carboxylic acid dimethylamide], the 50% inhibitory concentration (IC50) in assay [1] (setting [4]) was 229 nM; in assay [1] (setting [5]), 152 nM; in assay [2] (setting [6]) it was 24 nM; in assay [3] ([…] CDK1/cyclin B) it was over 15000 nM.
